Read-outs that look alike come from different tables or passages of the source.
What was measured:
[1] = Example 7 pharmacokinetics assay for efficacy study (plasma, liver); type: in vivo, BALB/c nude mice; details: mouse, po, 10 mg/kg, p.o.
Procedure: For efficacy study, agents were tested in the A375 human melanoma xenografts. Compound 118, Compound 156, and Compound 180 were administered to BALB/c nude mice bearing A375 xenografts from day 0 and dosed p.o. twice per day (BID). Compound 141 was administered from day 0 and dosed p.o. twice per day (BID) or dosed p.o. daily (QD) from day 1. Compound 141, Compound 118, Compound 156, and Compound 180 were dosed at 10 mg/kg for 14 days. The known BRAF inhibitor Dabrafenib was used as a positive control. Dabrafenib was administered from day 1 and dosed p.o. daily (QD) for 14 days and dosed at 100 mg/kg.
The plasma samples were collected at predetermined time points for PK analysis. The mice were euthanized at predetermined time points post the treatment. The blood samples were collected into the 1.5 mL Eppendorf tubes containing 15 μL of 0.5 M EDTA-K2. And then the anticoagulant blood samples were centrifuged at 2,500 g at 4° C. for 15 minutes. The plasma samples were separated into 2 aliquots. The 1st was used for PK analysis, and the 2nd served as backup. The samples were stored at −80° C. before bioanalysis.
Liver samples were collected at predetermined time points for PK analysis. The left lobe of the liver was dissected out and split into 2 parts. The 1st part was used for PK analysis and the 2nd part served as the backup for the study. The samples were transferred into pre-labeled tubes and quickly froze in liquid nitrogen within 2 minutes after dissection. The samples were stored at −80° C. before bioanalysis.
The harvested plasma and liver samples were processed for pharmacokinetics analysis by LC-MS/MS with a concentration range of 0.500~500 ng/mL for Dabrafenib in plasma and liver homogenate, 20.0~20,000 ng/mL for Compound 141, Compound 180 and Compound 118 in plasma and liver, 10.0~10,000 ng/mL for Compound 156 in plasma and liver.

[2] = tested on: A375 tumors; assay: In vivo efficacy, A375 xenograft tumor volume (Example 7); set-up: species or system human A375 melanoma xenograft in female BALB/c nude mice; details: oral, FIG. 14; for tumor regressions in the xenograft model: 10 mg/kg BID, A375 xenografts; for antitumor response compared with comparators dabrafenib or encorafenib: A375 human melanoma xenografts
Procedure: FIG. 14 is a line graph showing in vivo efficacy of dabrafenib, Compound 141, Compound 118, Compound 156, and Compound 180 in the treatment of female BALB/c nude mice bearing A375 tumors. Mice were treated with vehicle (10 μL/g, p.o., BID), dabrafenib (100 mg/kg, p.o., QD), Compound 141 (10 mg/kg, p.o., QD), Compound 141 (10 mg/kg, p.o., BID), Compound 118 (10 mg/kg, p.o., BID), Compound 156 (10 mg/kg, p.o., BID), or Compound 180 (10 mg/kg, p.o., BID) by oral gavage (p.o.). Data points represent group mean change in tumor volume. Error bars represent standard error of the mean (SEM). The x-axis is the time measured in days and the y-axis is A375 tumor volume measured in mm^3. The experiment was conducted as described in Example 7.

[3] = liver, BID × 14 days, read-out: Concentration in Liver (mean ± SEM)
[4] = plasma, BID × 14 days, read-out: Concentration in Plasma (mean ± SEM)

concentration at 6 h [1, 3] [ng/g]	concentration at 6 h [1, 4] [ng/mL]	Compound	tumor regressions in the xenograft model [2]	antitumor response compared with comparators dabrafenib or encorafenib [2]	concentration at 6 h ([1]; liver, QD × 14 days, read-out: Concentration in Liver (mean ± SEM)) [ng/g]	concentration at 6 h ([1]; plasma, QD × 14 days, read-out: Concentration in Plasma (mean ± SEM)) [ng/mL]
102000 ± 1600	4160 ± 503	CCN(C)S(=O)(=O)Nc1ccc(F)c(Oc2ccc3ncc(OCC4CCN(C5CCC(c6cc7c(cc6F)c(N6CCC(=O)NC6=O)nn7C)CC5)CC4)nc3c2)c1C#N (single isomer, unassigned) [Compound 118, 7-[2-cyano-3-[[ethyl(methyl)sulfamoyl]amino]-6-fluoro-phenoxy]-2-[[1-[4-[3-(2,4-dioxohexahydropyrimidin-1-yl)-5-fluoro-1-methyl-indazol-6-yl]cyclohexyl]-4-piperidyl]methoxy]quinoxaline]	profound tumor regressions	more robust antitumor response		
2400 ± 425	1920 ± 363	CCN(C)S(=O)(=O)Nc1ccc(F)c(Oc2ccc3ncc(C4CC5(CCN(C6CCC(c7cc8c(cc7F)c(N7CCC(=O)NC7=O)nn8C)CC6)CC5)C4)nc3c2)c1C#N (single isomer, unassigned) [Compound 180, 7-[2-cyano-3-[[ethyl(methyl)sulfamoyl]amino]-6-fluoro-phenoxy]-2-[7-[4-[3-(2,4-dioxohexahydropyrimidin-1-yl)-5-fluoro-1-methyl-indazol-6-yl]cyclohexyl]-7-azaspiro[3.5]nonan-2-yl]quinoxaline]	profound tumor regressions	more robust antitumor response		
1840 ± 305	1870 ± 359	CCN(C)S(=O)(=O)Nc1ccc(F)c(Oc2ccc3ncn(C4CC5(CCN(C6CCN(c7cc8c(cc7F)c(N7CCC(=O)NC7=O)nn8C)CC6)CC5)C4)c(=O)c3c2)c1C#N [Compound 156, 6-[2-cyano-3-[[ethyl(methyl)sulfamoyl]amino]-6-fluoro-phenoxy]-3-[7-[1-[3-(2,4-dioxohexahydropyrimidin-1-yl)-5-fluoro-1-methyl-indazol-6-yl]-4-piperidyl]-7-azaspiro[3.5]nonan-2-yl]-4-oxo-quinazoline]	profound tumor regressions	more robust antitumor response		

Compound	concentration at 6 h [1, 3] [ng/g]	concentration at 6 h [1, 4] [ng/mL]	tumor regressions in the xenograft model [2]	antitumor response compared with comparators dabrafenib or encorafenib [2]	concentration at 6 h ([1]; liver, QD × 14 days, read-out: Concentration in Liver (mean ± SEM)) [ng/g]	concentration at 6 h ([1]; plasma, QD × 14 days, read-out: Concentration in Plasma (mean ± SEM)) [ng/mL]
CCN(C)S(=O)(=O)Nc1ccc(F)c(Oc2ccc3ncn(C4CC5(CCN(C6CC7(C6)CN(c6cc8c(cc6F)c(N6CCC(=O)NC6=O)nn8C)C7)CC5)C4)c(=O)c3c2)c1C#N (stereo not drawn) [Compound 141, 6-[2-cyano-3-[[ethyl(methyl)sulfamoyl]amino]-6-fluoro-phenoxy]-3-[7-[2-[3-(2,4-dioxohexahydropyrimidin-1-yl)-5-fluoro-1-methyl-indazol-6-yl]-2-azaspiro[3.3]heptan-6-yl]-7-azaspiro[3.5]nonan-2-yl]-4-oxo-quinazoline]	6570 ± 341	8750 ± 907	profound tumor regressions	more robust antitumor response	7500 ± 286	11000 ± 474
